The results in this text go back to US20210163437A1, “DERIVATIVES OF TRICYCLIC SPIROLACTONES AND USES THEREOF IN TREATMENT AND MANAGEMENT OF PAIN” (Yissum Research Development Company of The Hebrew …, priority 2017, published 2021).

Type in all cases: cell-based
The target in test [1] is T1, rat TRPV1 (rTRPV1) (Rattus norvegicus, UniProt O35433).
T1 construct: expressed in transfected cells; host or cells: HEK293T (transient)
Kind of test: live-cell calcium imaging of HEK293T cells transiently expressing rat TRPV1. Conditions: for compound-evoked calcium response normalized to the capsaicin (2 μM)-evoked response: compound 300 μM (0.3 mM), fura-2-loaded HEK293T transiently expressing rTRPV1, only capsaicin positive cells analyzed. As for the experimental part:
(3A) Top: Captured pseudocolor images of fura-2-loaded HEK293T cells transiently expressing rTRPV1, before (“Basal”) and after the application of synthesized tricyclic spirolactones (300 μM; ‘Comp.’), followed by the subsequent application of capsaicin (2 μM; “Cap”). Scale bar indicates level of intracellular calcium. Bottom: Box and whiskers plot showing the indicated compound (300 μM)-evoked calcium response of HEK293T cells expressing rTRPV1, normalized to the capsaicin (2 μM)-evoked response. Boxes represent the mean of 3-4 independent experiments (each n≥50 cells); only capsaicin-positive cells were analyzed. Statistical significance between the different compounds' normalized responses is indicated as follows: *p≤0.05; ***p≤0.001; ns, no statistical significance (ANOVA followed by multiple comparison test). (3B) Top: Captured pseudocolor images of fura-2-loaded HEK293T cells transiently expressing the wt rTRPV1 (“rV1”; top), chicken TRPV1 (“cV1”; middle), or the VBS mutated receptor rTRPV1-Y511G (“YG”; bottom), before (“Basal”) and after the application of compound 13 (300 μM; “13”), which was followed by the subsequent application of 2-APB (300 μM; “2APB”). Scale bar indicates level of intracellular calcium. Bottom: changes with time of intracellular calcium levels in fura-2-loaded HEK293T expressing rat TRPV1 (“rTRPV1”; red line), rat TRPV1-Y511G (“rTRPV1(YG)”; purple line), and chicken TRPV1 (“cTRPV1”; orange line) in response to compound 13 (300 μM; “13”; light gray bar), which was followed by the subsequent application of 2-APB (300 μM; “2APB”; gray bar). Each trace represents an average of 75-130 cells sensitive to 2-APB. […] (3C) Top: Captured pseudocolor images of fura-2-loaded HEK293T cells transiently expressing rTRPV1, before (“Basal”) and after the application of saturated tricyclic spirolactones (300 μM; “Comp.”), which was followed by the subsequent application of capsaicin (2 μM; “Cap”). Scale bar indicates the level of intracellular calcium. […] Boxes represent the mean of 3-4 independent experiments (each n≥50 cells); only capsaicin positive cells were analyzed. Statistical significance between the different compounds' normalized responses is indicated as follows: **p≤0.01; ***p≤0.001; ns, no statistical significance (ANOVA followed by multiple comparison test).
(§1) To examine whether the compact tricyclic spirolactones activate TRPV1, we scanned a library of synthesized compounds illustrated in FIG. 2C. […] To test this possibility, we recoded the response of rTRPV1 transiently expressed in HEK293T cells in the whole-cell or inside-out patch clamp configurations.

For test [2], the target named is T1, rat TRPV1 (rTRPV1). Described as above. Conditions: compound 18 at 0.3 mM or 1 mM applied before compound 13 (1 mM).
Test [3] addresses T2, rTRPV1 (Rattus norvegicus, UniProt O35433).
T2 construct: expressed in transfected cells
Kind of test: patch clamp of rTRPV1 transiently expressed in HEK293T cells. To be noted: voltage ramps between −80 and +80 mV; compound 32 1 mM, capsaicin 2 μM.
Description: (§2) Each point represents the average (±SEM) response of 50 cells. […] Scale bar indicates level of intracellular calcium.
as §1
TRPV1 is a non-selective cationic ion channel with a typical current profile. To examine whether our novel structure architecture activates the channel similarly as other VBS -associated agonists, we analyzed the current profile using the whole-cell configuration of the patch clamp technique. Using voltage ramps between −80 and +80 mV, we analyzed the channel response to 32 and capsaicin.

For test [4], the target named is T2, rTRPV1. In words: calcium imaging of rTRPV1 stably expressed in HEK293 cells (concentration-response, capsazepine block). Conditions: for EC50 / Hill coefficient n: normalized concentration-response, fit to the Hill equation, rTRPV1 stably expressed in HEK293 cells.
Description: as §2
To further analyze the role of the aromatic anchor in TRPV1 activation by spirolactones, we compared the affinity of 13 to its vanilloid derivative 32.

Test [5] relates to chicken TRPV1. Kind of test: live-cell calcium imaging of HEK293T cells transiently expressing chicken TRPV1. To be noted: compound 300 μM; followed by 2-APB 300 μM. As for the experimental part:
(§3) (3A) Top: Captured pseudocolor images of fura-2-loaded HEK293T cells transiently expressing rTRPV1, before (“Basal”) and after the application of synthesized tricyclic spirolactones (300 μM; ‘Comp.’), followed by the subsequent application of capsaicin (2 μM; “Cap”). Scale bar indicates level of intracellular calcium. Bottom: Box and whiskers plot showing the indicated compound (300 μM)-evoked calcium response of HEK293T cells expressing rTRPV1, normalized to the capsaicin (2 μM)-evoked response. Boxes represent the mean of 3-4 independent experiments (each n≥50 cells); only capsaicin-positive cells were analyzed. Statistical significance between the different compounds' normalized responses is indicated as follows: *p≤0.05; ***p≤0.001; ns, no statistical significance (ANOVA followed by multiple comparison test). (3B) Top: Captured pseudocolor images of fura-2-loaded HEK293T cells transiently expressing the wt rTRPV1 (“rV1”; top), chicken TRPV1 (“cV1”; middle), or the VBS mutated receptor rTRPV1-Y511G (“YG”; bottom), before (“Basal”) and after the application of compound 13 (300 μM; “13”), which was followed by the subsequent application of 2-APB (300 μM; “2APB”). Scale bar indicates level of intracellular calcium. […] Boxes represent the mean of 3-4 independent experiments (each n≥50 cells); only capsaicin positive cells were analyzed. […]

The target of test [6] is T3, rTRPV1(Y511G) (Rattus norvegicus, UniProt O35433, Y511G).
T3 construct: expressed in transfected cells; host or cells: HEK293T (transient)
T3 sequence (O35433 whole entry Y511G): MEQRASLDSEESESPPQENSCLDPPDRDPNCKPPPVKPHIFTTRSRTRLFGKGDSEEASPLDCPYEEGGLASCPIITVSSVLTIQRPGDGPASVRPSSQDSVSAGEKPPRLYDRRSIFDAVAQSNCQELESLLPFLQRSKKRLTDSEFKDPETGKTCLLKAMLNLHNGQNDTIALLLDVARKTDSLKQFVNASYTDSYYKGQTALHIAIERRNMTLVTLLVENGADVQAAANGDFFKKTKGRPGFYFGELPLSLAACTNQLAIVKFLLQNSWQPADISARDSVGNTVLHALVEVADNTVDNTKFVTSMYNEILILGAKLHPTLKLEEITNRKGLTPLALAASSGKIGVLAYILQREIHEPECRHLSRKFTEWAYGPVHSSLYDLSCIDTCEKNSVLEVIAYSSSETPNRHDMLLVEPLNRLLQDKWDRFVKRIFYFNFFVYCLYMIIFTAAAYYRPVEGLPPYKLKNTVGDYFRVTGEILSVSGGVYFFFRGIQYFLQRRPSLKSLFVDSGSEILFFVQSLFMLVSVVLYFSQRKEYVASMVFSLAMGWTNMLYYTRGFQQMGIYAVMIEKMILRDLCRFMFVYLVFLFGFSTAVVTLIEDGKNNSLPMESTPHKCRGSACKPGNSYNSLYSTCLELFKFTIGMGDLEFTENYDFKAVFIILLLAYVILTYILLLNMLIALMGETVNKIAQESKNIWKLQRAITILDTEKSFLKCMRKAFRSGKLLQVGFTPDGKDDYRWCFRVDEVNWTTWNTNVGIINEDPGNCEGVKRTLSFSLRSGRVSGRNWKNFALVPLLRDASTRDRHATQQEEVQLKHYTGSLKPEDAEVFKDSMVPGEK
Kind of test: live-cell calcium imaging of HEK293T cells transiently expressing VBS-mutated rat TRPV1. Conditions: compound 300 μM; followed by 2-APB 300 μM. As for the experimental part: as §3

The subject of test [7] is acutely dissociated trigeminal ganglia neurons. Kind of test: neuronal response of acutely dissociated trigeminal ganglia neurons. To be noted: compared with capsaicin sensitivity. How it is done:
To examine whether the compact tricyclic spirolactones activate TRPV1, we scanned a library of synthesized compounds illustrated in FIG. 2C. […] Although our compounds are less hydrophobic than other VBS-binding molecules (e.g., capsaicin), most synthesized compounds could not be prepared in physiological salt solutions (i.e., Ringer) at concentrations greater than 1 mM without adding cytotoxic levels of DMSO. […] To confirm that the observed calcium increase is a direct result of TRPV1 activation through the VBS, we used chicken TRPV1, which is insensitive to vanilloids28, and VBS-mutated rat TRPV1 (rTRPV1(Y511G)). […] The functionality and expression of these channels were verified by their sensitivity to 2-aminoethoxydiphenyl borate (2-APB), a non-VBS TRPV1 activator. We next investigated the selectivity of compound 13 to TRPV1 by examining the neuronal response of acutely dissociated trigeminal ganglia neurons. […] A possible explanation to the observed lower response of 13 in comparison to capsaicin might be the accessibility of the compound to the intracellular VBS. To test this possibility, we recoded the response of rTRPV1 transiently expressed in HEK293T cells in the whole-cell or inside-out patch clamp configurations.

Where “and” joins values, the source holds several entries; their conditions need not be identical. Equal entries are not always repeated. Entries after “also recorded” stand apart in the source; their conditions may differ.

T1 sequence (O35433 whole entry): as the sequence (O35433 whole entry Y511G) above, with G511Y counted along it
T2 sequence (O35433 whole entry): as the sequence (O35433 whole entry Y511G) above, with G511Y counted along it

As to `O=C1C[C@@H]2CC[C@@H]3CCCC[C@]32O1` [Compound 18], in test [1], the “compound-evoked calcium response normalized to the capsaicin (2 μM)-evoked response” value is “most dramatic decrease in the level of activation”. The “inhibitory effect on the response of compound 13” value in test [2] is reported as “had no effect”.

As to `O=C1C[C@@H]2CC[C@H]3C/C(=C/c4ccccc4)C[C@@]23O1` [Compound 23], the “compound-evoked calcium response normalized to the capsaicin (2 μM)-evoked response” value in test [1] is given as “no activity was detected”.

On to `COc1cc(CNC(=O)CCCC/C=C/C(C)C)ccc1O` [capsaicin, reference compound], for which the “current-voltage profile, whole-cell patch clamp” value in test [3] is listed as “robust, outwardly rectifying currents of similar magnitude”.

With `CC1C[C@H]2CCC[C@H]3CC(=O)O[C@@]23C1` (some centres unmarked) [Compound 15], the “compound-evoked calcium response normalized to the capsaicin (2 μM)-evoked response” value in test [1] is “active compounds”.

As for `C=C1C[C@H]2CCC[C@H]3CC(=O)O[C@@]23C1` [Compound 10], in test [1], the “compound-evoked calcium response normalized to the capsaicin (2 μM)-evoked response” value is listed as “active compounds”.

Regarding `Oc1cc2c(cc1O)CN(C(=S)NCCc1ccc(Cl)cc1)CCC2` [capsazepine, reference compound], the “inhibition of TRPV1 activation by compound 32” value in test [4] (CPZ 20 μM, pre-incubation or application after pre-activation by 32 (100 and 300 μM)) is recorded as “resulted in channel inhibition”.

As for `O=C1C[C@@H]2CC[C@@H]3CC=CC[C@]32O1` [Compound 13], the “compound-evoked calcium response normalized to the capsaicin (2 μM)-evoked response” value in test [1] is recorded as “unexpectedly robust response”. In addition, the “activation of chicken TRPV1 (intracellular calcium)” value in test [5] is “did not activate”. In test [6], the “activation of VBS-mutated rTRPV1-Y511G (intracellular calcium)” value was “did not activate”. Further, the “selectivity to TRPV1: neuronal response” value in test [7] is listed as “activated only capsaicin sensitive neurons”. In test [4], the EC50 was determined as 127 ± 8.9 µM; the Hill coefficient n was 2.7 and 2.7±0.5.

On to `O=C1O[C@@]23CCCC[C@H]2CC[C@H]3[C@H]1Cc1ccccc1` [Compound 34], for which the “compound-evoked calcium response normalized to the capsaicin (2 μM)-evoked response” value in test [1] is given as “significant channel activation”. In addition, the “time course of the evoked calcium response” value in test [1] (compound 300 μM, compared to compound 13 or 32) is reported as “transiently response”.

In the case of `O=C1O[C@@]23CC=CC[C@H]2CC[C@H]3[C@H]1Cc1ccccc1` [Compound 31], the “compound-evoked calcium response normalized to the capsaicin (2 μM)-evoked response” value in test [1] was “strongest response; also recorded: capsaicin-like activity”.

As to `COc1cc(C[C@H]2C(=O)O[C@@]34CC=CC[C@H]3CC[C@@H]24)ccc1O` [Compound 32], in test [1], the “compound-evoked calcium response normalized to the capsaicin (2 μM)-evoked response” value was “strongest response; also recorded: capsaicin-like activity”. The “current-voltage profile, whole-cell patch clamp” value in test [3] is listed as “robust, outwardly rectifying currents of similar magnitude; also recorded: elicits the typical TRPV1 outwardly rectifying current”. Further, in test [4], the EC50 was 12.8 ± 1.6 µM; the Hill coefficient n is 1.4 and 1.4±0.2.
